Results reported in the supplement of paper PMC10307832.

How the values were obtained:
Experiment in all cases: relative viability (nuclei count vs DMSO), 5 days (fraction); higher = more cells survive
[1] = compound: CC1=CC=C(C=C1)C(=O)CN2C3=C(CCCC3)SC2=N [Pifithrin_alpha] + Cc1nc(Nc2ncc(C(=O)Nc3c(C)cccc3Cl)s2)cc(N2CCN(CCO)CC2)n1 [Dasatinib] (partner 0.075 µM)
In short: (§1)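 For relative viability, nuclei counts in treated wells were divided by those in vehicle wells. Lung cancer cell lines had been pin-tool dosed in 1536-well plates the day after seeding and cultured for 5 days, then fixed and stained in one step (final 0.05% Triton X-100, 1% formaldehyde, 1 ug/ml Hoechst) and imaged at 4×. Doses were one drug alone or a fixed anchor-drug dose plus five library-drug doses (not always all listed) in √10 steps, and values are duplicate-plate medians.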

Axitinib + OSI-027 = compound: CNC(=O)c1ccccc1Sc1ccc2c(/C=C/c3ccccn3)n[nH]c2c1 [Axitinib] + COc1cccc2cc(-c3nc([C@H]4CC[C@H](C(=O)O)CC4)n4ncnc(N)c34)[nH]c12 [OSI-027] (partner 0.5 µM)
In short: as §1

Axitinib + Pemetrexed = compound: CNC(=O)c1ccccc1Sc1ccc2c(/C=C/c3ccccn3)n[nH]c2c1 [Axitinib] + Nc1nc2[nH]cc(CCc3ccc(C(=O)N[C@@H](CCC(=O)O)C(=O)O)cc3)c2c(=O)[nH]1 [Pemetrexed] (partner 0.2 µM)
In short: as §1

[2] = compound: CC1=CC=C(C=C1)C(=O)CN2C3=C(CCCC3)SC2=N [Pifithrin_alpha] + Cc1nc(NC(=O)N2CCC[C@H]2C(N)=O)sc1-c1ccnc(C(C)(C)C(F)(F)F)c1 [Alpelisib] (partner 2 µM)
In short: as §1

Cell Line | relative viability ([1]; first compound 1 µM) | relative viability ([1]; first compound 3.162 µM) | relative viability ([1]; first compound 10 µM) | relative viability ([1]; first compound 31.62 µM) | relative viability ([1]; first compound 100 µM) | relative viability (Axitinib + OSI-027; first compound 0.005 µM) | relative viability (Axitinib + OSI-027; first compound 0.01581 µM) | relative viability (Axitinib + OSI-027; first compound 0.05 µM) | relative viability (Axitinib + OSI-027; first compound 0.1581 µM) | relative viability (Axitinib + OSI-027; first compound 0.5 µM) | relative viability (Axitinib + Pemetrexed; first compound 0.005 µM) | relative viability (Axitinib + Pemetrexed; first compound 0.01581 µM) | relative viability (Axitinib + Pemetrexed; first compound 0.05 µM) | relative viability (Axitinib + Pemetrexed; first compound 0.1581 µM) | relative viability (Axitinib + Pemetrexed; first compound 0.5 µM) | relative viability ([2]; first compound 1 µM) | relative viability ([2]; first compound 3.162 µM) | relative viability ([2]; first compound 10 µM) | relative viability ([2]; first compound 31.62 µM) | relative viability ([2]; first compound 100 µM)
NCI-H1975 | 0.257 | 0.242 | 0.2 | 0.214 | 0.2 | 0.813 | 0.744 | 0.714 | 0.673 | 0.711 | 0.294 | 0.293 | 0.272 | 0.269 | 0.279 | 0.58 | 0.445 | 0.385 | 0.346 | 0.299
NCI-H661 | 0.967 | 0.842 | 0.801 | 0.62 | 0.76 | 0.741 | 0.754 | 0.721 | 0.617 | 0.855 | 0.885 | 0.916 | 0.902 | 0.942 | 0.956 | 0.528 | 0.552 | 0.623 | 0.63 | 0.73
NCI-H1651 | 0.37 | 0.506 | 0.425 | 0.322 | 0.326 | 0.73 | 0.683 | 0.725 | 0.601 | 0.674 | 0.567 | 0.586 | 0.587 | 0.618 | 0.657 | 0.884 | 0.933 | 0.908 | 0.685 | 0.989
NCI-H647 | 0.218 | 0.17 | 0.141 | 0.153 | 0.153 | 0.703 | 0.617 | 0.69 | 0.551 | 0.787 | 0.21 | 0.149 | 0.2 | 0.184 | 0.209 | 1.07 | 1.06 | 0.992 | – | 0.736
HCC-78 | 0.259 | 0.354 | 0.336 | 0.417 | 0.455 | 0.365 | 0.335 | 0.358 | 0.362 | 0.356 | 0.919 | 0.941 | 0.933 | 0.974 | 0.962 | 0.295 | 0.337 | 0.352 | – | 0.296
NCI-H2126 | 0.392 | 0.48 | 0.431 | 0.451 | 0.391 | 0.685 | 0.766 | 0.733 | 0.643 | 0.667 | 0.679 | 0.708 | 0.689 | 0.75 | 0.737 | 0.714 | 0.714 | 0.685 | 0.623 | 0.655
SK-LU-1 | 0.175 | 0.193 | 0.181 | – | 0.168 | 0.396 | 0.374 | 0.37 | 0.409 | 0.415 | 1.01 | 1 | 1.09 | 1.03 | 1.13 | 0.828 | 1.19 | 1.13 | 0.766 | 1.16
LC-2-ad | – | 0.492 | 0.347 | – | 0.437 | 0.932 | 0.827 | 0.907 | 0.8 | 0.807 | 0.261 | 0.257 | 0.268 | 0.271 | 0.277 | 0.898 | 0.799 | 0.791 | 0.56 | 0.682
NCI-H23 | 0.887 | 0.675 | 0.741 | – | 0.456 | 0.66 | 0.568 | 0.617 | 0.652 | 0.699 | 0.678 | 0.751 | 0.583 | 0.665 | 0.713 | 0.586 | 0.572 | 0.634 | 0.466 | 0.592
NCI-H2228 | 0.516 | 0.471 | 0.421 | 0.425 | 0.363 | 0.518 | 0.611 | 0.716 | 0.532 | 0.659 | 0.335 | 0.306 | 0.307 | 0.374 | 0.341 | 0.697 | 0.613 | 0.566 | 0.531 | 0.465
SW 1573 | 0.616 | 0.513 | 0.602 | 0.36 | 0.577 | 0.592 | 0.592 | 0.68 | 0.508 | 0.724 | 0.841 | 0.777 | 0.928 | 0.77 | 0.816 | 0.715 | 0.824 | 0.816 | 0.647 | 0.729
HCC-15 | 0.634 | 0.61 | 0.485 | 0.275 | 0.264 | 0.725 | 0.679 | 0.689 | 0.65 | 0.623 | 0.211 | 0.228 | 0.23 | 0.22 | 0.211 | 0.948 | 0.902 | 0.833 | 0.659 | 0.839
H3255 | 0.29 | 0.344 | 0.308 | 0.32 | 0.274 | 0.651 | 0.512 | 0.612 | 0.599 | 0.544 | 0.531 | 0.527 | 0.568 | 0.568 | 0.578 | 0.587 | 0.739 | 0.692 | 0.403 | 0.593
SK-MES-1 | 0.344 | 0.237 | 0.264 | 0.228 | 0.268 | 0.748 | 0.647 | 0.638 | 0.642 | 0.854 | 0.949 | 1.03 | 1.02 | 1.04 | 1.04 | 0.882 | 0.955 | 0.851 | 0.626 | 0.775
COR-L 105 | 0.315 | 0.292 | 0.323 | 0.243 | 0.323 | 0.762 | 0.509 | 0.681 | 0.722 | 0.725 | 1.14 | 1.09 | 1.05 | 1.25 | 1.26 | 0.948 | 0.909 | 0.902 | 0.683 | 0.768
NCI-H838 | 0.259 | 0.28 | 0.245 | 0.234 | 0.229 | 0.5 | 0.361 | 0.436 | 0.38 | 0.493 | 0.243 | 0.25 | 0.247 | 0.237 | 0.25 | 0.909 | 0.834 | 0.812 | 0.694 | 0.733
